# Source: ChEMBL document CHEMBL1157539, “Thousands of chemical starting points for antimalarial lead identification” (Nature, 2010)
# Test system: Plasmodium falciparum
# Experiment: GSK_TCMDC: Inhibition of Plasmodium falciparum 3D7 in whole erythrocytes, using parasite LDH activity as an index of growth.
# Format: functional, organism-based
# Conditions: not given
row,Structure (SMILES),XC50 [µM]
1,O=C(/C=C/c1cccc2ccccc12)NC1CCC(CN2CCC(c3c[nH]c4ccccc34)CC2)CC1 (configuration not stated),0.745

# Same assay, conditions: Plasmodium falciparum, 3D7
row,Structure (SMILES),XC50 [µM]
1,COc1ccc(-c2ccc(NC(=O)c3ccc(Cl)cc3)cc2)cc1CN1CCC(O)CC1,1.09
2,CC(C)(C)c1ccc(NC(=O)Nc2ccc(Cn3ncc(N4CCCNCC4)c(Cl)c3=O)cc2)cc1,0.752
3,O=C(Nc1ccc(-c2ccccc2)cc1)Nc1cccc(OCCN2CCCC2)c1,0.935
4,CCCCCCC1(C)N=C(N)N=C(N)C1c1ccc(Cl)c(Cl)c1 (configuration not stated),0.132
5,COc1cc(Cc2cnc(N)nc2N)cc(OCCCCC#N)c1OC,1.04
6,CC(=O)N(Cc1cccc(-c2ccc(CNCCc3ccccc3)cc2)c1)C1CCN(Cc2ccccc2)CC1,0.691
7,CCOC(=O)c1ccc(N2CCCCC2)c(NC(=O)C(Cl)(Cl)Cl)c1,0.849
8,O=C(/C=C/c1ccc(Cl)c(Cl)c1)NCCCCCN1CCCN(C(=S)Nc2cccc(Cl)c2)CC1,1.05
9,COc1cccc(NC(=O)NC2CCN(c3ccnc(Nc4ccc(F)cc4)n3)C2)c1 (configuration not stated),0.57
10,Cn1nccc1C(=O)NCCNCc1ccc(-c2cccc(-c3nc4ccccc4[nH]3)c2)cc1,0.137
11,O=C(/C=C/c1cccc2ccccc12)NC1CCC(CN2CCC(c3c[nH]c4ccccc34)CC2)CC1 (configuration not stated),0.666
12,CC(C)Cc1cn(-c2nc(-c3nc4ccccc4[nH]3)cs2)c2cc(Cl)ccc12,0.483
13,Cn1nc(C(F)(F)F)c(-c2ccc(F)cc2)c1NC(=O)Nc1ccc(F)cc1,0.754
14,CN1CCN(CCCN(Cc2csc(-c3ccc(CNCc4ccccc4)cc3)n2)S(=O)(=O)c2ccc(F)cc2)CC1,0.858
15,COc1cc(-c2nc(-c3ccccc3)c(-c3ccccc3)[nH]2)ccc1OCCN(C)C,0.303
16,COc1ccc(C2C(C(=O)Nc3ccc(C)c(F)c3)c3cc(OC)c(OC)cc3C(=O)N2C)cc1 (configuration not stated),0.956
17,CCc1ccc(CN2CCC(C(=O)Nc3ccc(-c4nc5ccccc5[nH]4)cc3)CC2)o1,0.61
18,CN1CCC(Oc2ccc(CN3CC[C@H](NC(=O)c4cccc(C#N)c4)C3)c3ccccc23)C1 (some centres not stated),0.804
19,CC(C)C1c2ccc(O)cc2CC2C(=O)N(C3CCCCC3)C(=O)N21 (configuration not stated),0.884
20,O=C(Nc1ccc(OC2CCN(Cc3ccccc3)C2)c(Cl)c1)c1cccs1 (configuration not stated),0.388
21,O=C(Nc1ccc2c(c1)OCO2)NC1CCN(c2ccnc(NCc3ccc(F)cc3)n2)CC1,0.943
22,CC(=O)c1cccc2[nH]c(C(=O)NC3CCC(CCN4CCc5ccc(C#N)cc5C4)CC3)cc12 (configuration not stated),0.842
23,COc1ccc2nc(/N=C3\NC(c4ccccn4)(c4ccccn4)C(=O)N3C)[nH]c2c1,0.586
24,Cc1cnc(NCC2CCCCC2)nc1NCC(=O)Nc1ccccc1,0.714

row,Structure (SMILES),XC50 [µM]
1,Nc1ncnc2occ(-c3ccc(NC(=O)Nc4cc(C(F)(F)F)ccc4F)cc3)c12 [GW770249A],1.72
2,c1ccc(Oc2ccc(Nc3ccnc4ccc(-c5ccccn5)cc34)cc2)cc1,1.1
3,COC(=O)Cn1c(C2CCN(CC3CCC(NC(=O)/C=C/c4ccc(Cl)c(Cl)c4)CC3)CC2)nc2ccccc21 (configuration not stated),1.14
4,NCc1ccc(Nc2nccc(Nc3ccc(-c4ccccc4)cc3)n2)cc1,0.892
5,COc1ccc(O)c(Cc2cnc3nc(N)nc(N)c3c2C)c1,0.0368
6,O=[N+]([O-])c1ccc(Nc2nc(N/N=C/c3cc(Cl)cc(Cl)c3O)nc(Nc3ccccc3)n2)cc1,0.671
7,CC(=O)N[C@@H]1c2cc(C(C)=O)ccc2OC(C)(C)[C@@H]1O,0.983
8,O=C(CCCc1ccccc1)Nc1cccc(N2CCC(N3CCN(c4ccccc4O)CC3)CC2)c1,0.786
9,N#Cc1ccc2[nH]c(-c3cc(-c4cccc(F)c4)cnc3N)nc2c1,0.193
10,CCN(CC)CCN(Cc1ccc(-c2ccc(Cl)cc2)cc1)C(=O)Cn1cc(CN(C)C)c(=O)nc1SCc1ccc(F)cc1,0.748
11,COc1ccc(CN2CCCC(Nc3ccc(F)c(F)c3)C2)c(O)c1 (configuration not stated),1.09
12,COc1ccc(CNc2nccc3ccc(-c4ccc5nccn5c4)cc23)cc1,0.882
13,c1ccc(-n2ncc(CNCc3ccc(-c4ccc(-c5nc6ccccc6[nH]5)s4)cc3)n2)cc1,1.4
14,COc1ccc(CNCc2ccc(F)cc2)cc1-c1ccc(S(=O)(=O)NCCN2CCCC2)c(C)c1,0.734
15,Cc1ccccc1CNCC(O)c1cccc(C(F)(F)F)c1 (configuration not stated),0.881
16,CC1CCc2c(C(=O)N3CCc4ccccc4C3)csc2C1 (configuration not stated),0.782
17,Nc1nc(N)c2c(ccn2Cc2cc3c(cc2Cl)OCO3)n1,0.765
18,COc1cccc(CNC(=O)NC2CCN(c3ccnc(Nc4ccc(F)cc4)n3)C2)c1 (configuration not stated),0.805
19,Oc1ccc(C=NNC(S)=Nc2cccc3ccccc23)c(O)c1,1.04
20,COc1cc2c(cc1C(F)(F)F)N(C(=O)Nc1cc(OC(F)(F)F)cc(-c3cccnc3)c1)CC2,0.0415
21,O=C(NCCN1CCOCC1)c1ccc(N2CCC(Oc3ccc4ccccc4c3)CC2)nc1,0.763
22,O=C(Nc1cccc(C(F)(F)F)c1)c1ccc(S(=O)(=O)NCC2CCCN(CC3CCCCC3)C2)cc1 (configuration not stated),0.899
23,CCOc1cc(C2C(C(=O)OC(C)C)=C(C)NC3=C2C(=O)CC(c2ccc(Cl)cc2)C3)ccc1OC(C)=O (configuration not stated),0.932
24,Cc1ccc(C)c(Cn2ccc3nc(N)nc(N)c32)c1,0.301

row,Structure (SMILES),XC50 [µM]
1,CCc1ccc(CN2CCC(CNC(=O)c3cc(-c4ccccc4Cl)cs3)C2)cc1 (configuration not stated),1.43
2,COc1ccc(CNC2Cc3ccccc3C2)cc1-c1ccc(S(=O)(=O)NCCN2CCCC2)s1,0.195
3,CCCCc1ccccc1NS(=O)(=O)c1ccc(OC)c(N2CCNCC2)c1,1.38
4,Cc1ccc(C2CCN(CCCCNC(=O)c3ccc(-c4ccc(C(F)(F)F)cc4)cc3)CC2)c(O)c1,0.128
5,Cc1cccc(Cn2ccc3c4c(N)nc(N)nc4ccc32)c1,0.00735
6,CC(C)COc1ccc(Cl)cc1Cc1nc(-c2nc3cccc(CN4CCN(C)CC4)c3[nH]2)cs1,1.33
7,CC[C@H]1CN2CC[C@@H]1C[C@H]2[C@H](O)c1cc(N2CCC(N3CCCCC3)CC2)nc2ccc(OC)cc12,0.267
8,O=[N+]([O-])c1cccc(-c2ccc(C=NNc3cc(N4CCCC4)nc(N4CCCC4)n3)o2)c1,0.713
9,COc1ccc(C(=O)Nc2ccc3nc(N4CCCCC4)cc(C)c3c2)cc1[N+](=O)[O-],0.779
10,CN(C)CCCN(C)c1cccc2c1nc(-c1cccnc1)n2CCNCc1ccccc1,1.39
11,COc1ccc(NC(=O)[C@H](Cc2ccccc2)Nc2cc(C)nc(NCCc3cccnc3)n2)cc1,0.76
12,CCCCCCCN(Cc1ccc(OC(C)(C)C(=O)OCC)cc1)C(=O)Nc1ccccc1OCC,1.03
13,CN(C)S(=O)(=O)c1ccc(N2CCN(CCC3(c4cccc(F)c4)CCN(C(=O)C(C)(C)C)CC3)CC2)c2nonc12,0.697
14,O=C(/C=C/c1ccc(Cl)c(Cl)c1)NC1CCC(CN2CCC(c3c[nH]c4ccncc34)CC2)CC1 (configuration not stated),0.398
15,CC(=O)Nc1ccc(NC(=O)c2cc(-c3cc(Cl)ccc3O)n[nH]2)cc1,0.176
16,N#Cc1ccc2c(c1)CCN(CCC1CCC(NC(=O)c3cccc(-c4ccc(F)cc4)c3)CC1)CC2 (configuration not stated),0.822
17,Nc1cccc(CNCc2ccc(-c3ccc(-c4nc5ccccc5[nH]4)s3)cc2)c1,0.574
18,Cc1ccc(NC(=O)c2ccc3ncccc3c2)cc1OC1CCN(Cc2ccsc2)C1 (configuration not stated),0.801
19,COCCNCc1ccc(-c2ccc3c(Nc4ccc(F)cc4Cl)ccnc3c2)o1,0.209
20,CC(C)CNCc1cccc(-c2cccc(CNc3ccc4ncccc4c3)c2)c1,0.947
21,CCc1cn2c3c(cc(C(=O)N[C@@H](Cc4ccccc4)[C@H](O)CNCc4cccc(C)c4)cc13)N(C)S(=O)(=O)CC2,0.246
22,COc1ccc2nccc([C@@H](O)CN3CCC(NCc4cc5cccnc5[nH]4)CC3)c2n1,0.956
23,COc1cc2c(cc1OCCN1CCC(N3CCCCC3)CC1)N(C(=O)/C=C/c1ccccc1OC(F)(F)F)CC2,0.59
24,CCCOc1ccc(C(F)(F)F)cc1NC(=O)c1nc2nc(C)cc(C)n2n1,0.251

row,Structure (SMILES),XC50 [µM]
1,COc1ccc(N2CCN(CCCCNC(=O)c3ccc(/C=C/c4ccc(Cl)c(Cl)c4)cc3)CC2)c(OC)c1,0.709
2,O=C(O)c1ccc2nc(-c3ccc(-c4ccccc4)cc3)n(C3CCN(Cc4ccc(-c5ncc[nH]5)cc4)CC3)c2c1,1.73
3,CCOC(=O)/C(=N\OC(C)(C)C(=O)NCc1ccc(O)c(O)c1)c1csc(NC(c2ccccc2)(c2ccccc2)c2ccccc2)n1,0.17
4,CC(C)(C)OC(=O)NCc1ccc(Nc2nnc(-c3cccc(C(=O)NCCC(c4ccccc4)c4ccccc4)c3)o2)cc1,0.581
5,COc1ccc2nc3cc(Cl)ccc3c(N)c2c1,0.165
6,NC(=O)c1cccc(C(=O)Nc2ccc(-c3cccc(-c4nc5cc(F)ccc5[nH]4)c3)cc2)c1,0.865
7,COc1ccc2nccc([C@@H](O)CN3CCC(NCCOc4ccccc4C(F)(F)F)CC3)c2c1,0.753
8,Cc1c(-c2ccc(C(=O)NC3CC(C)(C)NC(C)(C)C3)cc2)[nH]c2cc(Cl)c(Cl)cc12,0.751
9,O=C(Nc1cccc(C(F)(F)F)c1)N1CCOC(CCN2CCC3(CCc4ccccc43)CC2)(c2ccc(Cl)c(Cl)c2)C1 (configuration not stated),0.736
10,Clc1ccc(CNc2ccnc(NCCc3coc4ccccc34)n2)c(Cl)c1,1.17
11,c1cncc(CN2CCN(Cc3ccc(-c4ccc(-c5nc6ccccc6[nH]5)s4)cc3)CC2)c1,0.938
12,Cc1nc2ccccn2c1C1(O)C(=O)Nc2c(Cl)cc(Cl)cc21 (configuration not stated),1.59
13,Cn1nc(-c2cccc(CNC3CCc4ccccc43)c2)c2cnc(NC3CCCC3)nc21 (configuration not stated),0.857
14,CC(C)Oc1cc2c(cc1NS(=O)(=O)c1ccc(-c3ccc(Cl)s3)cc1F)CCN(C)CC2,0.712
15,Cc1cccc(NC(=O)c2cnc(N3CCN(c4ccncc4)CC3)c(Cl)c2)c1,0.678
16,O=C(NC1CC1)c1ccc(N2CCCCN2CCc2ccccc2)c(C(F)(F)F)c1,0.622
17,COC(=O)c1ccc(CC(C)NCC(O)c2cccc(C(F)(F)F)c2)cc1F (configuration not stated),1.06
18,CCC(=C(CC)c1ccc(O)c(CNC2CCCCC2)c1)c1ccc(O)c(CNC2CCCCC2)c1,0.152
19,O=S1(=O)C=C(c2ccccc2)CC1,0.205
20,CCCCCCCNc1cc(C)nc2ccc(OC)cc12,0.671
21,COc1ccccc1N1CCN(CCCCNC(=O)c2ccc(NC(=O)c3cc(Cl)cc(Cl)c3)cc2)CC1,0.458
22,CC[C@H]1CN2CC[C@H]1C[C@H]2C(O)c1cc(OC)nc2ccccc12 (some centres not stated),0.141
23,CCCCCOc1ccc(/N=C2\C=C(O)C(=O)c3ccccc32)cc1,0.243
24,O=C(/C=C/c1ccc(I)cc1)NCCCCCN1CCC(c2c[nH]c3ccc(O)cc23)CC1,0.773
